In patent US20250144223A1, “PROTEIN DEGRADATION COMPOUND BASED ON NAMPT TARGET PROTEIN AND APPLICATION THEREOF” (GLUETACS THERAPEUTICS (SHANGHAI) CO., LTD., priority 2021, published 2025) one finds IC50 data, which are given here for 20 compounds.

The assay deals with Jurkat. The experiment in a line: CellTiter-Glo Luminescent Cell Viability Assay, half inhibitory concentration (IC50) on tumor cell proliferation. The assay is classed as cell-based. The note with it: Homo sapiens, Jurkat cells, 72 h treatment. As to the method:
The tumor cells used herein were cultured in a cell culture medium at 37° C. in an incubator with 5% CO2, where the cell culture medium was supplemented with 10% FBS, as well as penicillin at a final concentration of 100 U/mL and streptomycin at a final concentration of 100 μg/mL. Prior to experimentation, all cells used were identified as correct cells by STR cells, and were negative for mycoplasma through routine testing.
IC50 values of the compounds of the present disclosure (including the compounds in Table 1 and compounds of examples) were measured using the CellTiter-Glo® Luminescent Cell Viability Assay kit from Promega Corporation. Assay details are as follows: Cells were seeded in 100 μL RPMI1640 medium containing serum at a density of 20,000 cells/well. After 24 h, the inoculated cells were treated with the compounds of the present disclosure which were serially diluted. After the cells were treated with the compounds of the present disclosure for 72 h, the CellTiter-Glo® reagent was added to the culture medium for cell viability assessment according to the instructions provided with the kit. DMSO served as the negative control, and FK866 inhibitor was used as the positive control, both treated with the same protocol as the compounds of the present disclosure. The growth inhibition of the compounds of the present disclosure on cells was plotted by Prism Graphpad software, and the IC50 values of the compounds of the present disclosure were calculated therefrom.
For orientation: ATP-based viability assays read luminescence as a measure of living cells.
By IC50 is commonly meant the point on the concentration scale where inhibition reaches its midpoint. Read a low IC50 as greater potency in that assay. On to `O=C(/C=C/c1cccnc1)NCCCCC1CCN(C(=O)c2ccc(N3CCN(C(=O)COCCOCCOCCOCCOCCSc4cccc5c4C(=O)N(C4CCC(=O)NC4=O)C5=O)CC3)cc2)CC1` (centres unmarked) [SIAIS631115, (E)-N-(4-(1-(4-(4-(17-((2-(2,6-dioxopiperidin-3-yl)-1,3-dioxoisoindolin-4-yl)thio)-3,6,9,12,15-pentaoxaheptadecanoyl)piperazin-1-yl)benzoyl)piperidin-4-yl)butyl)-3-(pyridin-3-yl)acrylamide], for which the IC50 stood at 74.2 nM.

Take `O=C(/C=C/c1cccnc1)NCCCCC1CCN(C(=O)c2ccc(N3CCN(C(=O)COCCOCCOCCOCCOCCSc4cccc5c4CN(C4CCC(=O)NC4=O)C5=O)CC3)cc2)CC1` (centres unmarked) [SIAIS631118, (E)-N-(4-(1-(4-(4-(17-((2-(2,6-dioxopiperidin-3-yl)-1-oxoisoindolin-4-yl)thio)-3,6,9,12,15-pentaoxaheptadecanoyl)piperazin-1-yl)benzoyl)piperidin-4-yl)butyl)-3-(pyridin-3-yl)acrylamide]: the IC50 came out at 66.6 nM. In the case of `O=C(/C=C/c1cccnc1)NCCCCC1CCN(C(=O)c2ccc(N3CCN(CCCC#Cc4cccc5c4C(=O)N(C4CCC(=O)NC4=O)C5=O)CC3)cc2)CC1` (centres unmarked) [SIAIS631119, (E)-N-(4-(1-(4-(4-(5-(2-(2,6-dioxopiperidin-3-yl)-1,3-dioxoisoindolin-4-yl)pent-4-yn-1-yl)piperazin-1-yl)benzoyl)piperidin-4-yl)butyl)-3-(pyridin-3-yl)acrylamide] it was 623 nM. In the case of `O=C(/C=C/c1cccnc1)NCCCCC1CCN(C(=O)c2ccc(N3CCN(CCCCC#Cc4cccc5c4C(=O)N(C4CCC(=O)NC4=O)C5=O)CC3)cc2)CC1` (centres unmarked) [SIAIS631120, (E)-N-(4-(1-(4-(4-(6-(2-(2,6-dioxopiperidin-3-yl)-1,3-dioxoisoindolin-4-yl)hex-5-yn-1-yl)piperazin-1-yl)benzoyl)piperidin-4-yl)butyl)-3-(pyridin-3-yl)acrylamide] it was 71 nM; in that of `O=C(/C=C/c1cccnc1)NCCCCC1CCN(C(=O)c2ccc(N3CCN(CCCCCCC#Cc4cccc5c4C(=O)N(C4CCC(=O)NC4=O)C5=O)CC3)cc2)CC1` (centres unmarked) [SIAIS631121, (E)-N-(4-(1-(4-(4-(8-(2-(2,6-dioxopiperidin-3-yl)-1,3-dioxoisoindolin-4-yl)oct-7-yn-1-yl)piperazin-1-yl)benzoyl)piperidin-4-yl)butyl)-3-(pyridin-3-yl)acrylamide], 63.9 nM. Then `O=C(/C=C/c1cccnc1)NCCCCC1CCN(C(=O)c2ccc(N3CCC(N4CCNCC4)CC3)nn2)CC1` [SIAIS631135, (E)-N-(4-(1-(6-(4-(piperazin-1-yl)piperidin-1-yl)pyridazine-3-carbonyl)piperidin-4-yl)butyl)-3-(pyridin-3-yl)acrylamide], with 725 nM; and `O=C(/C=C/c1cccnc1)NCCCCC1CCN(C(=O)c2ccc(C3CCN(CCCCCC#Cc4cccc5c4CN(C4CCC(=O)NC4=O)C5=O)CC3)cc2)CC1` (centres unmarked) [SIAIS631139, (E)-N-(4-(1-(4-(1-(7-(2-(2,6-dioxopiperidin-3-yl)-1-oxoisoindolin-4-yl)hept-6-yn-1-yl)piperidin-4-yl)benzoyl)piperidin-4-yl)butyl)-3-(pyridin-3-yl)acrylamide], with 5.23 nM; and `O=C(/C=C/c1cccnc1)NCCCCC1CCN(C(=O)c2ccc(C3CCN(CCCCCCC#Cc4cccc5c4CN(C4CCC(=O)NC4=O)C5=O)CC3)cc2)CC1` (centres unmarked) [SIAIS631140, (E)-N-(4-(1-(4-(1-(8-(2-(2,6-dioxopiperidin-3-yl)-1-oxoisoindolin-4-yl)oct-7-yn-1-yl)piperidin-4-yl)benzoyl)piperidin-4-yl)butyl)-3-(pyridin-3-yl)acrylamide], with 9.7 nM. Compound `O=C(/C=C/c1cccnc1)NCCCCC1CCN(C(=O)c2ccc(C3CCN(CCCCSc4cccc5c4CN(C4CCC(=O)NC4=O)C5=O)CC3)cc2)CC1` (centres unmarked) [SIAIS631141, (E)-N-(4-(1-(4-(1-(4-((2-(2,6-dioxopiperidin-3-yl)-1-oxoisoindolin-4-yl)thio)butyl)piperidin-4-yl)benzoyl)piperidin-4-yl)butyl)-3-(pyridin-3-yl)acrylamide] had an IC50 of 5.36 nM. Consider `O=C(/C=C/c1cccnc1)NCCCCC1CCN(C(=O)c2ccc(N3CCNCC3)nn2)CC1` [SIAIS632004, (E)-N-(4-(1-(6-(piperazin-1-yl)pyridazine-3-carbonyl)piperidin-4-yl)butyl)-3-(pyridin-3-yl)acrylamide], for which half-maximal inhibition (IC50) was put at 362 nM.

Take `O=C(/C=C/c1cccnc1)NCCCCC1CCN(C(=O)c2ccc(N3CCC(N4CCN(CCCCCC#Cc5cccc6c5CN(C5CCC(=O)NC5=O)C6=O)CC4)CC3)nn2)CC1` (centres unmarked) [SIAIS632005, (E)-N-(4-(1-(6-(4-(4-(7-(2-(2,6-dioxopiperidin-3-yl)-1-oxoisoindolin-4-yl)hept-6-yn-1-yl)piperazin-1-yl)piperidin-1-yl)pyridazine-3-carbonyl)piperidin-4-yl)butyl)-3-(pyridin-3-yl)acrylamide]: the midpoint of inhibition, the IC50, lay at 3.98 nM.

`O=C(/C=C/c1cccnc1)NCCCCC1CCN(C(=O)c2ccc(N3CCC(N4CCN(CCCCCCC#Cc5cccc6c5CN(C5CCC(=O)NC5=O)C6=O)CC4)CC3)nn2)CC1` (centres unmarked) [SIAIS632006, (E)-N-(4-(1-(6-(4-(4-(8-(2-(2,6-dioxopiperidin-3-yl)-1-oxoisoindolin-4-yl)oct-7-yn-1-yl)piperazin-1-yl)piperidin-1-yl)pyridazine-3-carbonyl)piperidin-4-yl)butyl)-3-(pyridin-3-yl)acrylamide] had an IC50 of 6.39 nM.

`O=C(/C=C/c1cccnc1)NCCCCC1CCN(C(=O)c2ccc(N3CCC(N4CCN(CCCCSc5cccc6c5CN(C5CCC(=O)NC5=O)C6=O)CC4)CC3)nn2)CC1` (centres unmarked) [SIAIS632007, (E)-N-(4-(1-(6-(4-(4-(4-((2-(2,6-dioxopiperidin-3-yl)-1-oxoisoindolin-4-yl)thio)butyl)piperazin-1-yl)piperidin-1-yl)pyridazine-3-carbonyl)piperidin-4-yl)butyl)-3-(pyridin-3-yl)acrylamide] displayed an IC50 of 3.59 nM. The compound `O=C(/C=C/c1cccnc1)NCCCCC1CCN(C(=O)c2ccc(N3CCN(CCCCCC#Cc4cccc5c4CN(C4CCC(=O)NC4=O)C5=O)CC3)nn2)CC1` (centres unmarked) [SIAIS632010, (E)-N-(4-(1-(6-(4-(7-(2-(2,6-dioxopiperidin-3-yl)-1-oxoisoindolin-4-yl)hept-6-yn-1-yl)piperazin-1-yl)pyridazine-3-carbonyl)piperidin-4-yl)butyl)-3-(pyridin-3-yl)acrylamide] displayed a 50% inhibitory concentration (IC50) of 8.35 nM.

As to `O=C(/C=C/c1cccnc1)NCCCCC1CCN(C(=O)c2ccc(N3CCN(CCCCCCC#Cc4cccc5c4CN(C4CCC(=O)NC4=O)C5=O)CC3)nn2)CC1` (centres unmarked) [SIAIS632011, (E)-N-(4-(1-(6-(4-(8-(2-(2,6-dioxopiperidin-3-yl)-1-oxoisoindolin-4-yl)oct-7-yn-1-yl)piperazin-1-yl)pyridazine-3-carbonyl)piperidin-4-yl)butyl)-3-(pyridin-3-yl)acrylamide], the IC50 was 9.3 nM. `O=C(/C=C/c1cccnc1)NCCCCC1CCN(C(=O)c2ccc(N3CCN(CCCCSc4cccc5c4CN(C4CCC(=O)NC4=O)C5=O)CC3)nn2)CC1` (centres unmarked) [SIAIS632012, (E)-N-(4-(1-(6-(4-(4-((2-(2,6-dioxopiperidin-3-yl)-1-oxoisoindolin-4-yl)thio)butyl)piperazin-1-yl)pyridazine-3-carbonyl)piperidin-4-yl)butyl)-3-(pyridin-3-yl)acrylamide] showed an IC50 of 1.66 nM. Regarding `O=C(/C=C/c1cccnc1)NCCCCC1CCN(C(=O)c2ccc(N3CCN(C(=O)CNc4cccc5c4CN(C4CCC(=O)NC4=O)C5=O)CC3)cc2)CC1` (centres unmarked) [SIAIS632014, (E)-N-(4-(1-(4-(4-((2-(2,6-dioxopiperidin-3-yl)-1-oxoisoindolin-4-yl)glycyl)piperazin-1-yl)benzoyl)piperidin-4-yl)butyl)-3-(pyridin-3-yl)acrylamide], the IC50 was 6.81 nM. In the case of `O=C(/C=C/c1cccnc1)NCCCCC1CCN(C(=O)c2ccc(N3CCN(C(=O)CCCNc4cccc5c4CN(C4CCC(=O)NC4=O)C5=O)CC3)cc2)CC1` (centres unmarked) [SIAIS632015, (E)-N-(4-(1-(4-(4-(4-((2-(2,6-dioxopiperidin-3-yl)-1-oxoisoindolin-4-yl)amino)butanoyl)piperazin-1-yl)benzoyl)piperidin-4-yl)butyl)-3-(pyridin-3-yl)acrylamide] it was 523 nM; in that of `O=C(/C=C/c1cccnc1)NCCCCC1CCN(C(=O)c2ccc(N3CCN(C(=O)CCCCNc4cccc5c4CN(C4CCC(=O)NC4=O)C5=O)CC3)cc2)CC1` (centres unmarked) [SIAIS632016, (E)-N-(4-(1-(4-(4-(5-((2-(2,6-dioxopiperidin-3-yl)-1-oxoisoindolin-4-yl)amino)pentanoyl)piperazin-1-yl)benzoyl)piperidin-4-yl)butyl)-3-(pyridin-3-yl)acrylamide], 64.4 nM; in that of `O=C(/C=C/c1cccnc1)NCCCCC1CCN(C(=O)c2ccc(N3CCN(C(=O)CCCCCNc4cccc5c4CN(C4CCC(=O)NC4=O)C5=O)CC3)cc2)CC1` (centres unmarked) [SIAIS632017, (E)-N-(4-(1-(4-(4-(6-((2-(2,6-dioxopiperidin-3-yl)-1-oxoisoindolin-4-yl)amino)hexanoyl)piperazin-1-yl)benzoyl)piperidin-4-yl)butyl)-3-(pyridin-3-yl)acrylamide], 21.2 nM.
